Test results taken from PMC9005681, “Use of AD Informer Set compounds to explore validity of novel targets in Alzheimer's disease pathology” (Alzheimer's & Dementia : Translational Research & Clinical …, 2022).
Several values for one entry are separate records, joined by “and”; a condition that tells them apart may be missing. Equal entries are not always repeated.

Tests used:
Assay in all cases: PDSP GPCR panel primary binding assays at 10 μM
Settings in all cases: primary assay
[1] = target: T1, cloned human or rodent CNS receptors, channels, and transporters (PDSP panel) (Homo sapiens, UniProt P28566)
T1 construct: expressed in transfected cells
Description: (§1) GPCR panel: Screening against the receptors within the PDSP panel offers an assessment of off-target pharmacological activity at cloned human or rodent CNS receptors, channels, and transporters that could confound CNS-related phenotypes. A total of 46–47 primary binding assays were run in quadruplicate on these compounds at 10 μM, with follow-up secondary binding assays in 11-point dose-response in triplicate for select compounds versus select receptors. Secondary binding assays were executed for all receptors where test compound displaced an average of >50% of radio-labeled standard ligand. As an exception, no secondary assays were carried out for H3, PBR, or GABAA. […]

[2] = target: T2, cloned human or rodent CNS receptors, channels, and transporters (PDSP panel) (Rattus norvegicus, UniProt P16257)
T2 construct: expressed in transfected cells
Description: as §1

[3] = target: T3, cloned human or rodent CNS receptors, channels, and transporters (PDSP panel) (Homo sapiens, UniProt P11229)
T3 construct: expressed in transfected cells
T3 sequence (P11229 1-460): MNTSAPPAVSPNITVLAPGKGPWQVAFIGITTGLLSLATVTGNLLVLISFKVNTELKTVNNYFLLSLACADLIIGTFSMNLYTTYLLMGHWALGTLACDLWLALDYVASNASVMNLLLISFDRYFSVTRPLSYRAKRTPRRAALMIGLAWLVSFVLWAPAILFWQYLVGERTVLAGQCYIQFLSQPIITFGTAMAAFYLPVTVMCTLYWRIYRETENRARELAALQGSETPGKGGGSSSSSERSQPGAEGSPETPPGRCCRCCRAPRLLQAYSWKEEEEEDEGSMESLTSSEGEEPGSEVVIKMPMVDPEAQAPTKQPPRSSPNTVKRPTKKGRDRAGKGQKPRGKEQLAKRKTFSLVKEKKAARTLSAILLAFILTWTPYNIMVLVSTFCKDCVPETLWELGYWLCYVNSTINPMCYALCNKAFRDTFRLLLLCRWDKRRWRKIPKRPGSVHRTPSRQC
Description: as §1

[4] = target: T4, cloned human or rodent CNS receptors, channels, and transporters (PDSP panel) (Homo sapiens, UniProt P20309)
T4 construct: expressed in transfected cells
Description: as §1

[5] = target: T5, cloned human or rodent CNS receptors, channels, and transporters (PDSP panel) (Homo sapiens, UniProt P35372)
T5 construct: expressed in transfected cells
Description: as §1

[6] = target: T6, cloned human or rodent CNS receptors, channels, and transporters (PDSP panel) (Homo sapiens, UniProt P50406)
T6 construct: expressed in transfected cells
Description: as §1

[7] = target: T7, cloned human or rodent CNS receptors, channels, and transporters (PDSP panel) (Homo sapiens, UniProt P08173)
T7 construct: expressed in transfected cells
T7 sequence (P08173 1-479): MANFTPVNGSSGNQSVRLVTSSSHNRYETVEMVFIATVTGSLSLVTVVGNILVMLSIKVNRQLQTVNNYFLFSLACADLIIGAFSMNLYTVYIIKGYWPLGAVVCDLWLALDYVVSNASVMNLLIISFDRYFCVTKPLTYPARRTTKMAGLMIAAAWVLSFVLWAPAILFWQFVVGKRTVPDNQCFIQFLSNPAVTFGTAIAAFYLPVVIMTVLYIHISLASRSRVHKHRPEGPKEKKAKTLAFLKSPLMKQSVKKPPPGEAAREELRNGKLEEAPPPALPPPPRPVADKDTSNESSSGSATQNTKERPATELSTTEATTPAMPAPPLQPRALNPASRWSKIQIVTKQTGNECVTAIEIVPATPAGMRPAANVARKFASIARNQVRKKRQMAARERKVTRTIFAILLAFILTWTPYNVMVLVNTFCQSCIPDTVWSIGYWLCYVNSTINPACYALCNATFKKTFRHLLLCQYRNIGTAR
Description: as §1

[8] = target: T8, cloned human or rodent CNS receptors, channels, and transporters (PDSP panel) (Homo sapiens, UniProt P35462)
T8 construct: expressed in transfected cells
Description: as §1

T8 sequence (P35462 whole entry): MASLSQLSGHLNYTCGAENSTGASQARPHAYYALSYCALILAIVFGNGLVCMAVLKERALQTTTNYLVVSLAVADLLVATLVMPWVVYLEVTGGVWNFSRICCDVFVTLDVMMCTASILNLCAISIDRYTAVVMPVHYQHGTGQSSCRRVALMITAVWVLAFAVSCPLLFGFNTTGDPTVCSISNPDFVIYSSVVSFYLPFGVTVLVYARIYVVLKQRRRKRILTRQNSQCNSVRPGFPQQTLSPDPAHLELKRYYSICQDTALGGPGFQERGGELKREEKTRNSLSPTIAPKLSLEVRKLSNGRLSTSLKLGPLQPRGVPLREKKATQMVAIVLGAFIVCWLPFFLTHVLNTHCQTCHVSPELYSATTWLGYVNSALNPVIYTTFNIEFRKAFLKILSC
T4 sequence (P20309 whole entry): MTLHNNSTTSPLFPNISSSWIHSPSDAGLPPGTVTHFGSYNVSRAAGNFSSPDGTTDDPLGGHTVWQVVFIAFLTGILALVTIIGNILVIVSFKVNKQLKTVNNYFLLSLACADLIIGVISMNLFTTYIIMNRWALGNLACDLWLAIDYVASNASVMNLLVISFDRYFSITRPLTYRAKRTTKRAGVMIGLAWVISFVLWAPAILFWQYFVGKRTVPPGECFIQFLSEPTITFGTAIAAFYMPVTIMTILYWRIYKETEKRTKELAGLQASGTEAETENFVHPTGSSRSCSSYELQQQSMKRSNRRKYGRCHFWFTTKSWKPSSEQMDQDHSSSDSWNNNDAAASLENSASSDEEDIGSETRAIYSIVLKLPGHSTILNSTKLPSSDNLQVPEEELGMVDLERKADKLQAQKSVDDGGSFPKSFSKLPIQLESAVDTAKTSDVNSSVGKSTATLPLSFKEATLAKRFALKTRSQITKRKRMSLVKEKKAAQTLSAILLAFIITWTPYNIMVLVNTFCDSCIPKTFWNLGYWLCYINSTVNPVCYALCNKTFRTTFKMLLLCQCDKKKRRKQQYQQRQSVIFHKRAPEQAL
T5 sequence (P35372 whole entry): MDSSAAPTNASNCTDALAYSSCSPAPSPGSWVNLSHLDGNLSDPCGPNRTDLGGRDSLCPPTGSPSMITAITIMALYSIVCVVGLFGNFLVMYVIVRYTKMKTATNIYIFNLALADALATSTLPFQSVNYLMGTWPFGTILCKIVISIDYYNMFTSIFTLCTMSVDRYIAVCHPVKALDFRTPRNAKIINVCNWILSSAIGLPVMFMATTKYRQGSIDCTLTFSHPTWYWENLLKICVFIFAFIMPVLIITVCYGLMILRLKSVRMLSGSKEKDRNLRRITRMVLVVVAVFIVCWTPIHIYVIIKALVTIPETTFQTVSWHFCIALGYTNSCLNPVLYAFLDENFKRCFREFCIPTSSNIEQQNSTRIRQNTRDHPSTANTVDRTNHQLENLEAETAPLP
T6 sequence (P50406 whole entry): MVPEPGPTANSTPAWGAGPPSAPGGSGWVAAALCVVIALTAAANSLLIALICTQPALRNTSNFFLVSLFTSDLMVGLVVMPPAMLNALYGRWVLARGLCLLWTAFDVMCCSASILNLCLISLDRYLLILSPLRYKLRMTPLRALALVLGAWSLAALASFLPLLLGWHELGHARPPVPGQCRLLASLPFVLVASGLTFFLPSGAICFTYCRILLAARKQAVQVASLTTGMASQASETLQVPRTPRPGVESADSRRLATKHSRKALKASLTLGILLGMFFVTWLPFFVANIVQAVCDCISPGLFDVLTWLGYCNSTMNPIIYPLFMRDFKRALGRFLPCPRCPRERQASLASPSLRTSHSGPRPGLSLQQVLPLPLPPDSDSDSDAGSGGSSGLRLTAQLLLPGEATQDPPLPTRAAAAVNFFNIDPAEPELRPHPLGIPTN
T1 sequence (P28566 whole entry): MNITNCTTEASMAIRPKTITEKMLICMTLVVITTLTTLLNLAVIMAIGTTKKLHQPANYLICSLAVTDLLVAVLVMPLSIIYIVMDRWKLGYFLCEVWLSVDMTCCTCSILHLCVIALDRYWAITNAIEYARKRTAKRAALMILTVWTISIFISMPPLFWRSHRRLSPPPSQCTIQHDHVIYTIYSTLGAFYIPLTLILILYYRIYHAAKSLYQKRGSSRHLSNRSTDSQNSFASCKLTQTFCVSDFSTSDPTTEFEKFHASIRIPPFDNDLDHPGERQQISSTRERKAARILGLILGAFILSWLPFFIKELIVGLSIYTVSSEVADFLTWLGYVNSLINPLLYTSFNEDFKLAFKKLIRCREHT

CC(=O)N1CCC(NC(=O)NC23CC4CC(CC(C4)C2)C3)CC1 [UNC10302683A, AR9281]
Mean % ([1]; 5-HT1E, mean inhibition): -2.2%
Inhibition 1 ([1]; 5-HT1E, replicate 1): 8.11%
Inhibition 2 ([1]; 5-HT1E, replicate 2): -12.87%
Inhibition 3 ([1]; 5-HT1E, replicate 3): -6.96%
Inhibition 4 ([1]; 5-HT1E, replicate 4): 2.94%
Inhibition 1 ([2]; PBR, replicate 1): 10.97% and 6.98%
Inhibition 2 ([2]; PBR, replicate 2): -9.87% and 57.06%
Inhibition 3 ([2]; PBR, replicate 3): -4.95% and 7.94%
Inhibition 4 ([2]; PBR, replicate 4): -4.51% and 19.02%
Mean % ([3]; M1, mean inhibition): 7.62%
Inhibition 1 ([3]; M1, replicate 1): 23.24%
Inhibition 2 ([3]; M1, replicate 2): 6.49%
Inhibition 3 ([3]; M1, replicate 3): -4.8%
Inhibition 4 ([3]; M1, replicate 4): 5.55%
Mean % ([4]; M3, mean inhibition): -3.62%
Inhibition 1 ([4]; M3, replicate 1): -3%
Inhibition 2 ([4]; M3, replicate 2): -3.76%
Inhibition 3 ([4]; M3, replicate 3): 2.67%
Inhibition 4 ([4]; M3, replicate 4): -10.4%
Mean % ([5]; MOR, mean inhibition): 5.26%
Inhibition 1 ([5]; MOR, replicate 1): 2.55%
Inhibition 2 ([5]; MOR, replicate 2): 12.43%
Inhibition 3 ([5]; MOR, replicate 3): 4.76%
Inhibition 4 ([5]; MOR, replicate 4): 1.31%
Mean % ([6]; 5-HT6, mean inhibition): 9.33%
Inhibition 1 ([6]; 5-HT6, replicate 1): 32.27%
Inhibition 2 ([6]; 5-HT6, replicate 2): 17.51%
Inhibition 3 ([6]; 5-HT6, replicate 3): -5.68%
Inhibition 4 ([6]; 5-HT6, replicate 4): -6.79%
Mean % ([7]; M4, mean inhibition): 12.52%
Inhibition 1 ([7]; M4, replicate 1): 4.48%
Inhibition 2 ([7]; M4, replicate 2): 16.88%
Inhibition 3 ([7]; M4, replicate 3): 4.25%
Inhibition 4 ([7]; M4, replicate 4): 24.46%
Mean % ([8]; D3, mean inhibition): -9.76%
Inhibition 1 ([8]; D3, replicate 1): -1.76%
Inhibition 2 ([8]; D3, replicate 2): -6.19%
Inhibition 3 ([8]; D3, replicate 3): -8.7%
Inhibition 4 ([8]; D3, replicate 4): -22.39%

Cl.NC(=O)c1cnc(N[C@@H]2CCCC[C@@H]2N)nc1Nc1cccc(-n2nccn2)c1 [UNC10302682A, P505-15 (PRT06207 HCl)]
Inhibition 1 ([1]; Receptor 5-HT1E, 10 μM): -23.96%
Inhibition 2 ([1]; Receptor 5-HT1E, 10 μM): -26.62%
Inhibition 3 ([1]; Receptor 5-HT1E, 10 μM): 0%
Inhibition 4 ([1]; Receptor 5-HT1E, 10 μM): -50.26%
Mean % ([1]; Receptor 5-HT1E, 10 μM, mean of Inhibition 1-4): -25.21%
Inhibition 1 ([2]; Receptor PBR, 10 μM): 32.16% and 27.63%
Inhibition 2 ([2]; Receptor PBR, 10 μM): 2.97% and 6.1%
Inhibition 4 ([2]; Receptor PBR, 10 μM): 18.35% and 12.24%
Mean % ([2]; Receptor PBR, 10 μM, mean of Inhibition 1-4): 14.68% and 16.23%
Inhibition 1 ([3]; Receptor M1, 10 μM): 35.84%
Inhibition 2 ([3]; Receptor M1, 10 μM): 24.74%
Inhibition 3 ([3]; Receptor M1, 10 μM): 0.85%
Inhibition 4 ([3]; Receptor M1, 10 μM): 16.46%
Mean % ([3]; Receptor M1, 10 μM, mean of Inhibition 1-4): 19.47%
Inhibition 1 ([4]; Receptor M3, 10 μM): 28.46%
Inhibition 2 ([4]; Receptor M3, 10 μM): 2.32%
Inhibition 3 ([4]; Receptor M3, 10 μM): 15.74%
Inhibition 4 ([4]; Receptor M3, 10 μM): 10.41%
Mean % ([4]; Receptor M3, 10 μM, mean of Inhibition 1-4): 14.23%
Inhibition 1 ([5]; Receptor MOR, 10 μM): 27.09%
Inhibition 2 ([5]; Receptor MOR, 10 μM): 20.29%
Inhibition 3 ([5]; Receptor MOR, 10 μM): 17.6%
Inhibition 4 ([5]; Receptor MOR, 10 μM): 20.19%
Mean % ([5]; Receptor MOR, 10 μM, mean of Inhibition 1-4): 21.29%
Inhibition 1 ([6]; Receptor 5-HT6, 10 μM): -1.07%
Inhibition 2 ([6]; Receptor 5-HT6, 10 μM): -19.49%
Inhibition 3 ([6]; Receptor 5-HT6, 10 μM): -2.98%
Inhibition 4 ([6]; Receptor 5-HT6, 10 μM): -7.9%
Mean % ([6]; Receptor 5-HT6, 10 μM, mean of Inhibition 1-4): -7.86%
Inhibition 1 ([7]; Receptor M4, 10 μM): 24.23%
Inhibition 2 ([7]; Receptor M4, 10 μM): 6.78%
Inhibition 3 ([7]; Receptor M4, 10 μM): 21.48%
Inhibition 4 ([7]; Receptor M4, 10 μM): 18.49%
Mean % ([7]; Receptor M4, 10 μM, mean of Inhibition 1-4): 17.75%
Inhibition 1 ([8]; Receptor D3, 10 μM): 15.21%
Inhibition 2 ([8]; Receptor D3, 10 μM): 7.11%
Inhibition 3 ([8]; Receptor D3, 10 μM): 21.57%
Inhibition 4 ([8]; Receptor D3, 10 μM): 8.07%
Mean % ([8]; Receptor D3, 10 μM, mean of Inhibition 1-4): 12.99%
